Data on 26 compounds can be found in US7868026B2, “Therapeutic compounds” (Pfizer Inc., priority 2005, dated 2011).

Common to all, as to format: biochemical
Experiment [1] addresses T1, CYP3A4 (Homo sapiens, UniProt P08684). The experiment in a line: Determination of compound Kiapp against recombinant CYP3A4 enzyme (BFC fluorescent substrate). In a few lines: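 Recombinant CYP3A4 (5.5 or 8 nM, with or without b5 depending on source) pre-incubated with inhibitor ≥30 min at room temperature in 100 mM sodium phosphate pH 7.0, 5 mM TCEP, 2% DMF. Reaction started with 200 uM NADPH and 5 uM BFC; initial fluorescence rates over 5 min fitted to Morrison tight-binding (non-partial) or Szedlacsek (partial) equations for Kiapp.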

Experiment [2] deals with T1, CYP3A4. The experiment can be described thus: Determination of IC50 against CYP3A4 by measurement of inhibition of testosterone metabolism (human liver microsomes, 6-β-OH-testosterone by LC-MS/MS). Also noted: 0.1 mg/mL human liver microsomes. As to conditions: read-out: IC50 (Testo.). In a few lines: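 Human liver microsomes (0.1 mg/mL) incubated with 25 μM testosterone and 1 mM NADPH in 100 mM potassium phosphate, pH 7.4, for eight minutes. 6-β-OH-testosterone measured by LC-MS/MS in MRM mode against an internal standard and quantified from a metabolite standard curve.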

Experiment [3] addresses T1, CYP3A4. The experiment can be described thus: Determination of IC50 against CYP3A4 by measurement of inhibition of midazolam metabolism (human liver microsomes, 1-hydroxymidazolam by LC-MS/MS). More on the design: 0.1 mg/mL human liver microsomes. As to conditions: 2 μM midazolam, 0.1 mg/mL human liver microsomes. Put shortly: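 Human liver microsomes (0.1 mg/mL) incubated 8 min with 2 μM midazolam and 1 mM NADPH in 100 mM potassium phosphate, pH 7.4. 1-Hydroxymidazolam quantified by LC-MS/MS (MRM) as peak area ratio to internal standard against a metabolite standard curve.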
Background: Liver microsomes are a subcellular fraction often used to study metabolism.

The mark [4] stands for this setting: Baculo. enzyme preparation, read-out: Kiapp (BFC, Baculo.).
Where [5] appears, read: Super. enzyme preparation, read-out: Kiapp (BFC, Super.).

SMILES strings stand for the structures. Read-outs that look alike come from different tables or passages of the source. Where only a bound is given, the exact number is not on record here.

T1 sequence (P08684 whole entry): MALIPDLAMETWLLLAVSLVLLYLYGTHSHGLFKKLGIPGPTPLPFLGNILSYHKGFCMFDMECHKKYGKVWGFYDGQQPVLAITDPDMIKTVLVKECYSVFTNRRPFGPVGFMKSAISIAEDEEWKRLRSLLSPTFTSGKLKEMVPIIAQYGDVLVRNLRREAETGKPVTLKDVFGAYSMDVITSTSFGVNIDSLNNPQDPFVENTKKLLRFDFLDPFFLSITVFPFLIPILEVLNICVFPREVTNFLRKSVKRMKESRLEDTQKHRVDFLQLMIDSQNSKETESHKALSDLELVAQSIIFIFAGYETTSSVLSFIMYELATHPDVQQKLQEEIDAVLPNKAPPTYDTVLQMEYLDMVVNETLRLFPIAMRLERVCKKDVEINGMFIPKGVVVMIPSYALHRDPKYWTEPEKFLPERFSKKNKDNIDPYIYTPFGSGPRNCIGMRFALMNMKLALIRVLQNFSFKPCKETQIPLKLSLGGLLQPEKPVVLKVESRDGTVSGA

By IC50 is commonly meant the concentration needed to halve the response being measured. Turning to `CN(CCc1ccccc1)C(=O)c1ccccc1S(=O)(=O)Nc1cccnc1` [Example 68, N-methyl-N-(2-phenylethyl)-2-[(pyridin-3-ylamino)sulfonyl]benzamide], the Ki at CYP3A4 [1] (setting [4]) turned out to be 116 nM. Moreover, the IC50 was 36 nM at CYP3A4 [2] and 17 nM at CYP3A4 [3].
In the same order, the values of `O=C(NCCCc1ccccn1)c1ccccc1S(=O)(=O)Nc1cccnc1` [Example 69, 2-[(pyridin-3-ylamino)sulfonyl]-N-(3-pyridin-2-ylpropyl)benzamide] are more than 1000 nM, 179 nM and 105 nM.
With `O=C(NCc1cccc(OC(F)F)c1)c1ccccc1S(=O)(=O)Nc1cccnc1` [Example 71, N-[3-(difluoromethoxy)benzyl]-2-[(pyridin-3-ylamino)sulfonyl]benzamide], the Ki on CYP3A4 [1] (setting [4]) came to 245 nM; on CYP3A4 [1] (setting [5]), 5.1 nM. Moreover, the results for the IC50 on CYP3A4 [2] and at CYP3A4 [3] were less than 3 nM and 29 nM, respectively.
Regarding `CCOc1ccccc1CNC(=O)c1ccccc1S(=O)(=O)Nc1cccnc1` [Example 72, N-(2-ethoxybenzyl)-2-[(pyridin-3-ylamino)sulfonyl]benzamide], the Ki stood at 164 nM on CYP3A4 [1] (setting [4]) and 12.9 nM at CYP3A4 [1] (setting [5]). For the same compound, the results for the IC50 at CYP3A4 [2] and at CYP3A4 [3] were less than 3 nM and 27 nM, respectively.
Consider `CN(Cc1ccccc1F)C(=O)c1ccccc1S(=O)(=O)Nc1cccnc1` [Example 73, N-(2-fluorobenzyl)-N-methyl-2-[(pyridin-3-ylamino)sulfonyl]benzamide], for which the Ki at CYP3A4 [1] (setting [4]) was determined as 124 nM; at CYP3A4 [1] (setting [5]), 10.7 nM. The IC50 is less than 3 nM at CYP3A4 [2] and 38 nM at CYP3A4 [3].
In the same order, the values of `Cc1ccccc1CNC(=O)c1ccccc1S(=O)(=O)Nc1cccnc1` [Example 74, N-(2-methylbenzyl)-2-[(pyridin-3-ylamino)sulfonyl]benzamide] are 174 nM, 4.8 nM, less than 3 nM and 23 nM.
As to `Cc1ccccc1CCNC(=O)c1ccccc1S(=O)(=O)Nc1cccnc1` [Example 75, N-[2-(2-methylphenyl)ethyl]-2-[(pyridin-3-ylamino)sulfonyl]benzamide], the Ki on CYP3A4 [1] (setting [4]) came to 43 nM; at CYP3A4 [1] (setting [5]) it was 2.4 nM. The IC50 at CYP3A4 [2] was found to be 13 nM; at CYP3A4 [3] it was 16 nM.
Taken in the same sequence, the figures for `Cc1cccc(CCNC(=O)c2ccccc2S(=O)(=O)Nc2cccnc2)c1` [Example 76, N-[2-(3-methylphenyl)ethyl]-2-[(pyridin-3-ylamino)sulfonyl]benzamide] were 76.7 nM, 9.4 nM, 29 nM and 24 nM.
With `O=C(NCCc1ccccc1)c1ccccc1S(=O)(=O)Nc1cccnc1` [Example 77, N-(2-phenylethyl)-2-[(pyridin-3-ylamino)sulfonyl]benzamide], the results for the Ki on CYP3A4 [1] (setting [4]) and on CYP3A4 [1] (setting [5]) were 131 nM and 5.6 nM, respectively. The IC50 at CYP3A4 [2] was 192 nM; at CYP3A4 [3], 23 nM.
As for `CCN(Cc1ccccc1)C(=O)c1ccccc1S(=O)(=O)Nc1cccnc1` [Example 78, N-benzyl-N-ethyl-2-[(pyridin-3-ylamino)sulfonyl]benzamide], the Ki on CYP3A4 [1] (setting [4]) is 158 nM; on CYP3A4 [1] (setting [5]), 13.8 nM. For the same compound, the IC50 at CYP3A4 [2] is more than 750 nM; on CYP3A4 [3], 22 nM.
In the same order, the values of `Cc1ccc(CNC(=O)c2ccccc2S(=O)(=O)Nc2cccnc2)cc1` [Example 79, N-(4-methylbenzyl)-2-[(pyridin-3-ylamino)sulfonyl]benzamide] are 144 nM, 26.2 nM, 177 nM and 30 nM.
Taken in the same sequence, the figures for `Cc1cccc(CNC(=O)c2ccccc2S(=O)(=O)Nc2cccnc2)c1` [Example 80, N-(3-methylbenzyl)-2-[(pyridin-3-ylamino)sulfonyl]benzamide] were 206 nM, 4.1 nM, 71 nM and 25 nM.
In the same order, the values of `CNC(=O)c1ccc(CNC(=O)c2ccccc2S(=O)(=O)Nc2cccnc2)cc1` [Example 81, N-{4-[(methylamino)carbonyl]benzyl}-2-[(pyridin-3-ylamino)sulfonyl]benzamide] are more than 1000 nM, 276 nM, less than 3 nM and 501 nM.
`O=C(NCc1ccc2c(c1)CCO2)c1ccccc1S(=O)(=O)Nc1cccnc1` [Example 82, N-(2,3-dihydro-1-benzofuran-5-ylmethyl)-2-[(pyridin-3-ylamino)sulfonyl]benzamide]: the Ki on CYP3A4 [1] (setting [4]) is 743 nM; on CYP3A4 [1] (setting [5]), 20.9 nM. For the same compound, the half-maximal inhibitory concentration (IC50) at CYP3A4 [2] worked out at 25 nM; at CYP3A4 [3] it was 28 nM.
Taken in the same sequence, the figures for `O=C(c1ccccc1S(=O)(=O)Nc1cccnc1)N1CCc2ccccc2C1` [Example 83, 2-(3,4-dihydroisoquinolin-2(1H)-ylcarbonyl)-N-pyridin-3-ylbenzenesulfonamide] were 127 nM, 12.8 nM, 28 nM and 35 nM.
In the same order, the values of `CN(C)Cc1ccc(CNC(=O)c2ccccc2S(=O)(=O)Nc2cccnc2)cc1` [Example 84, N-{4-[(dimethylamino)methyl]benzyl}-2-[(pyridin-3-ylamino)sulfonyl]benzamide] are more than 1000 nM, 464 nM, 28 nM and more than 750 nM.
Turning to `O=C(NCc1ccc(F)c(F)c1)c1ccccc1S(=O)(=O)Nc1cccnc1` [Example 85, N-(3,4-difluorobenzyl)-2-[(pyridin-3-ylamino)sulfonyl]benzamide], the Ki was 105 nM on CYP3A4 [1] (setting [4]) and 12.1 nM on CYP3A4 [1] (setting [5]). Moreover, the IC50 on CYP3A4 [2] came to 41 nM; at CYP3A4 [3] it was 16 nM.
In the case of `CC(C)(O)c1ccc(CNC(=O)c2ccccc2S(=O)(=O)Nc2cccnc2)cc1` [Example 86, N-[4-(1-hydroxy-1-methylethyl)benzyl]-2-[(pyridin-3-ylamino)sulfonyl]benzamide], the values for the Ki at CYP3A4 [1] (setting [4]) and at CYP3A4 [1] (setting [5]) were more than 1000 nM and 209 nM, respectively. For the same compound, the IC50 at CYP3A4 [2] came out at 27 nM; at CYP3A4 [3] it was 118 nM.
In the same order, the values of `O=C(NCc1cccc(F)c1F)c1ccccc1S(=O)(=O)Nc1cccnc1` [Example 87, N-(2,3-difluorobenzyl)-2-[(pyridin-3-ylamino)sulfonyl]benzamide] are 90 nM, 6.3 nM, 10 nM and 30 nM.
Taken in the same sequence, the figures for `O=C(c1ccccc1S(=O)(=O)Nc1cccnc1)N1Cc2ccccc2C1` [Example 88, 2-(1,3-dihydro-2H-isoindol-2-ylcarbonyl)-N-pyridin-3-ylbenzenesulfonamide] were 362 nM, 47.6 nM, 28 nM and 185 nM.
As for `O=C(NCc1ccc2ncccc2c1)c1ccccc1S(=O)(=O)Nc1cccnc1` [Example 89, 2-[(pyridin-3-ylamino)sulfonyl]-N-(quinolin-6-ylmethyl)benzamide], the Ki at CYP3A4 [1] (setting [4]) was more than 1000 nM; on CYP3A4 [1] (setting [5]) it was 218 nM. Moreover, the 50% inhibitory concentration (IC50) at CYP3A4 [2] is 60 nM; on CYP3A4 [3], 54 nM.
On to `COc1ccccc1CNC(=O)c1ccccc1S(=O)(=O)Nc1cccnc1` [Example 90, N-(2-methoxybenzyl)-2-[(pyridin-3-ylamino)sulfonyl]benzamide], for which the Ki at CYP3A4 [1] (setting [4]) came to 313 nM; on CYP3A4 [1] (setting [5]) it was 25.2 nM. Also, the IC50 on CYP3A4 [2] stood at 36 nM; at CYP3A4 [3] it was 10 nM.
For the compound `COc1cncc(NS(=O)(=O)c2ccccc2C(=O)NC(C)(C)c2ccc(F)c(F)c2)c1` [Example 148, N-[1-(3,4-difluorophenyl)-1-methylethyl]-2-{[(5-methoxypyridin-3-yl)amino]sulfonyl}benzamide], the Ki was 18.1 nM at CYP3A4 [1] (setting [4]) and 4.9 nM on CYP3A4 [1] (setting [5]). In addition, the IC50 is 15 nM on CYP3A4 [2] and less than 3 nM on CYP3A4 [3].
In the same order, the values of `COc1cncc(NS(=O)(=O)c2ccccc2C(=O)NC2CCC(C)CC2)c1` (stereo not drawn) [Example 149, 2-{[(5-methoxypyridin-3-yl)amino]sulfonyl}-N-(4-methylcyclohexyl)benzamide] are 208 nM, 12.3 nM, 21 nM and 12 nM.
For `COc1cncc(NS(=O)(=O)c2ccccc2C(=O)NCc2ccc(Cl)cc2F)c1` [Example 150, N-(4-chloro-2-fluorobenzyl)-2-{[(5-methoxypyridin-3-yl)amino]sulfonyl}benzamide], the Ki is 52.2 nM on CYP3A4 [1] (setting [4]) and 9.2 nM on CYP3A4 [1] (setting [5]). Also, the IC50 on CYP3A4 [2] was 15 nM; at CYP3A4 [3], 38 nM.
In the case of `COc1cncc(NS(=O)(=O)c2ccccc2C(=O)NCc2cc(Cl)ccc2F)c1` [Example 151, N-(5-chloro-2-fluorobenzyl)-2-{[(5-methoxypyridin-3-yl)amino]sulfonyl}benzamide], the Ki at CYP3A4 [1] (setting [4]) is 120 nM; on CYP3A4 [1] (setting [5]), 12.2 nM. Also, the results for the concentration for half-maximal inhibition (IC50) on CYP3A4 [2] and on CYP3A4 [3] were 16 nM and 28 nM, respectively.
